According to patent US7517998B2, “Non nucleoside reverse transcriptase inhibitors” (priority 2004, dated 2009):

Target: T1, K103NNY181C mutant reverse transcriptase (Human immunodeficiency virus type 1 group M subtype B, UniProt P04585, K690N/Y768C)
T1 construct: mutations that occur in the reverse transcriptase segment of the pol gene
Test: Reverse transcriptase enzymatic assay (PicoGreen), K103N/Y181C mutant RT
Assay type: biochemical, HIV-1
Conditions: IC50 mut, mutant reverse transcriptase, enzymatic assay of Example 24
Method: The enzymatic assay employed is described as follows: The reverse transcriptase (RT) enzyme assay has been adapted to a 96-well microtiter plate format and uses PicoGreen™ as a fluorescent intercalator. More explicitly, the HIV-1 RT enzyme was thawed and appropriately diluted into Tris/HCl 50 mM pH 7.8 containing NaCl 60 mM, MgCl2.6H2O 2 mM, DTT 6 mM, GSH 2 mM and 0.02% w/v Chaps to give ≈10 nM enzyme. To 10 μL of this enzyme solution was added 10 μL of inhibitor solution (40 μM to 2.032 nM inhibitor in the same assay buffer as above containing 4% v/v DMSO). The plate was pre-incubated for 15 minutes at room temperature before proceeding to the next step. In this pre-incubation step, the highest and lowest inhibitor concentrations were 20 μM and 1.016 nM respectively and the concentration of DMSO was 2% v/v. Then the enzymatic reaction was initiated by addition of 20 μL of substrate solution. The final reaction mixture contained Tris/HCl 50 mM pH 7.8, NaCl 60 mM, MgCl2.6H2O 2 mM, DTT 6 mM, GSH 2 mM, CHAPS 0.02% w/v, DMSO 1% v/v, poly rC 45 nM, dG15 4.5 nM, dGTP 3.6 μM, and 2.5 nM enzyme. In this incubation step, the highest and lowest inhibitor concentrations were 10 μM and 0.508 nM respectively. After addition of the substrate cocktail, the plate was covered with a plastic seal and incubated for 50 minutes at 37° C. in a dry incubator. The reaction was then quenched by addition of 5 μL of EDTA 0.5 M. The plate was shaken for 30 seconds at medium speed and incubated for 5 minutes at room temperature. Then 160 μL of PicoGreen™ 1:400 dilution from commercial stock (diluted in Tris 20 mM pH 7.5 with EDTA 1 mM) was added and the plate was shaken for 30 seconds and incubated for 10 minutes at room temperature. The plate was then analyzed using a POLARstar Galaxy fluorometer (BMG Labtechnologies) with λex and λem of 485 nm and 520 nm respectively. Each well was read for 1.25 second. Each row contained at its extremities a blank and a control well.

SMILES | IC50 [nM]
Cc1nnc(SCC(=O)Nc2ccc(-c3ccc(OCC(=O)O)cc3)cc2Cl)n1-c1ccc(C(C)(C)C)cc1Cl [Compound 1001] | 25.5
Cc1ccc(-c2ncsc2SCC(=O)Nc2ccc(-c3ccc(CC(=O)O)cc3)cc2Cl)c(Cl)c1 [Compound 1002] | 795
Cc1ccc(-n2nccc2OCC(=O)Nc2ccc(-c3ccc(CC(=O)O)cc3)cc2Cl)c(Cl)c1 [Compound 1003] | 770
Cc1ccc(-n2nccc2SCC(=O)Nc2ccc(-c3ccc(CC(=O)O)cc3)cc2Cl)c(Cl)c1 [Compound 1004] | 420
Cc1ccc(-n2nncc2SCC(=O)Nc2ccc(-c3ccc(CC(=O)O)cc3)cc2Cl)c(Cl)c1 [Compound 1005] | 730
CC(C)(C)c1ccc(-n2nccc2SCC(=O)Nc2ccc(-c3ccc(CC(=O)O)cc3)cc2Cl)c(Cl)c1 [Compound 1006] | 216
Cc1ccc(-c2nnsc2SCC(=O)Nc2ccc(-c3ccc(CC(=O)O)cc3)cc2Cl)c(Cl)c1 [Compound 1007] | 107
Cc1ccc(-n2c(C)cnc2SCC(=O)Nc2ccc(-c3ccc(CC(=O)O)cc3)cc2Cl)c(Cl)c1 [Compound 1009] | 549
Cc1ccc(-c2cn[nH]c2OCC(=O)Nc2ccc(-c3ccc(CC(=O)O)cc3)cc2Cl)c(Cl)c1 [Compound 1010] | 156
Cc1nnc(SCC(=O)Nc2ccc(C#CC(C)(C)COC(N)=O)cc2Cl)n1-c1ccc(C2CC2)cc1Cl [Compound 1011] | 21
Cc1nnc(SCC(=O)Nc2ccc(-c3ccc(OCCN4CCCCC4)cc3)cc2Cl)n1-c1ccc(C2CC2)cc1Cl [Compound 1013] | 75
Cc1nnc(SCC(=O)Nc2ccc(-c3ccc(OCCN4CCCC4)cc3)cc2Cl)n1-c1ccc(C2CC2)cc1Cl [Compound 1014] | 81
Cc1ccc(-c2c(OCC(=O)Nc3ccc(C#CC(C)(C)C(=O)O)cc3Cl)n[nH]c2C)c(Cl)c1 [Compound 1015] | 48
Cc1ccc(-c2c(OCC(=O)Nc3ccc(C#CC(C)(C)O)cc3Cl)n[nH]c2C)c(Cl)c1 [Compound 1016] | 48
CC(C)(C#Cc1ccc(NC(=O)CSc2nnc(C(F)(F)F)n2-c2ccc(C3CC3)cc2Cl)c(Cl)c1)C(=O)O [Compound 1017] | 72
CC(C)(C#Cc1ccc(NC(=O)CSc2nnc(C(F)(F)F)n2-c2ccc(C3CC3)cc2Cl)c(Cl)c1)NC(=O)c1cc[n+]([O-])cc1 [Compound 1018] | 51
CC(C)(C#Cc1ccc(NC(=O)CSc2nnc(C3CC3)n2-c2ccc(C3CC3)cc2Cl)c(Cl)c1)C(=O)O [Compound 1019] | 525
COC(=O)c1ccc(-c2ccc(NC(=O)CSc3nnnn3-c3ccc(C)cc3Cl)c(Cl)c2)cc1 [Compound 2001] | 133
Cc1ccc(-n2nnnc2SCC(=O)Nc2ccc(-c3ccc(C(=O)O)cc3)cc2Cl)c(Cl)c1 [Compound 2002] | 53

SMILES | IC50 [nM]
COC(=O)Cc1ccc(-c2ccc(NC(=O)CSc3nnnn3-c3ccc(C)cc3Cl)c(Cl)c2)cc1 [Compound 2003] | 53
Cc1ccc(-n2nnnc2SCC(=O)Nc2ccc(-c3ccc(CC(=O)O)cc3)cc2Cl)c(Cl)c1 [Compound 2004] | 48
Cc1ccc(-n2nnnc2SCC(=O)Nc2ccc(-c3ccc(OCC(=O)O)cc3)cc2Cl)c(Cl)c1 [Compound 2007] | 22
COC(=O)c1ccc(-c2ccc(NC(=O)CSc3nnnn3-c3ccc(C(C)(C)C)cc3Cl)c(Cl)c2)cc1 [Compound 2008] | 39
Cc1ccc(-n2nnnc2SCC(=O)Nc2ccc(-c3ccc(CCO)cc3)cc2Cl)c(Cl)c1 [Compound 2009] | 28
COC(=O)Cc1ccc(-c2ccc(NC(=O)CSc3nnnn3-c3ccc(C)cc3Cl)c([N+](=O)[O-])c2)cc1 [Compound 2010] | 40
Cc1ccc(-n2nnnc2SCC(=O)Nc2ccc(-c3ccc(CC(=O)O)cc3)cc2[N+](=O)[O-])c(Cl)c1 [Compound 2011] | 49
Cc1ccc(-n2nnnc2SCC(=O)Nc2ccc(-c3ccc(CC(N)=O)cc3)cc2Cl)c(Cl)c1 [Compound 2012] | 15
Cc1ccc(-n2nnnc2SCC(=O)Nc2ccc(-c3ccc(CC(N)=O)cc3)cc2[N+](=O)[O-])c(Cl)c1 [Compound 2013] | 20
Cc1ccc(-n2nnnc2SCC(=O)Nc2ccc(-c3ccc(CC(=O)NS(C)(=O)=O)cc3)cc2Cl)c(Cl)c1 [Compound 2017] | 38
CC(C)(C)c1cc(Cl)c(-n2nnnc2SCC(=O)Nc2ccc(-c3ccc(OCC(=O)O)cc3)cc2Cl)c(Cl)c1 [Compound 2018] | 12
CC(C)(C)c1cc(Cl)c(-n2nnnc2SCC(=O)Nc2ccc(-c3ccc(CC(=O)O)cc3)cc2Cl)c(Cl)c1 [Compound 2020] | 18
Cc1cc(C)c(-n2nnnc2SCC(=O)Nc2ccc(-c3ccc(CC(=O)O)cc3)cc2Cl)c(Cl)c1 [Compound 2021] | 20
CC(C)(C)c1ccc(-n2nnnc2SCC(=O)Nc2ccc(-c3ccc(OCCN4CCOCC4)cc3)cc2Cl)c(Cl)c1 [Compound 2022] | 42
O=C(O)Cc1ccc(-c2ccc(NC(=O)CSc3nnnn3-c3ccc(C(F)(F)F)cc3Cl)c(Cl)c2)cc1 [Compound 2023] | 169
CCN(CC)CCOc1ccc(-c2ccc(NC(=O)CSc3nnnn3-c3ccc(C(C)(C)C)cc3Cl)c(Cl)c2)cc1 [Compound 2024] | 26
Cc1cc(C)c(-n2nnnc2SCC(=O)Nc2ccc(-c3ccc(C(C)(C)C(=O)O)cc3)cc2Cl)c(Cl)c1 [Compound 2025] | 42
Cc1cc(F)c(-n2nnnc2SCC(=O)Nc2ccc(-c3ccc(C(C)(C)C(=O)O)cc3)cc2Cl)c(Cl)c1 [Compound 2026] | 48
CC(C)(C)c1ccc(-n2nnnc2SCC(=O)Nc2ccc(-c3ccc(S(C)(=O)=O)cc3)cc2Cl)c(Cl)c1 [Compound 2027] | 23

SMILES | IC50 [nM]
CC(C)(C)c1ccc(-n2nnnc2SCC(=O)Nc2ccc(-c3ccc(CCC(=O)O)cc3)cc2Cl)c(Cl)c1 [Compound 2028] | 9.3
CC(C)(C)c1ccc(-n2nnnc2SCC(=O)Nc2ccc(-c3ccc(OCCN4CCCC4)cc3)cc2Cl)c(Cl)c1 [Compound 2029] | 19
O=C(O)Cc1ccc(-c2ccc(NC(=O)CSc3nnnn3-c3ccc4ccccc4c3Cl)c(Cl)c2)cc1 [Compound 2030] | 64
CC(C)(C)c1ccc(-n2nnnc2SCC(=O)Nc2ccc(-c3ccc(OCCN4CCC(O)CC4)cc3)cc2Cl)c(Cl)c1 [Compound 2031] | 34
CC(C)(C)c1ccc(-n2nnnc2SCC(=O)Nc2ccc(-c3ccc(/C=C/C(=O)O)cc3)cc2Cl)c(Cl)c1 [Compound 2032] | 6.6
O=C(O)Cc1ccc(-c2ccc(NC(=O)CSc3nnnn3-c3ccc(C4CC4)cc3Cl)c(Cl)c2)cc1 [Compound 2033] | 15
O=C(O)Cc1ccc(-c2ccc(NC(=O)CSc3nnnn3-c3ccc(OC(F)(F)F)cc3Cl)c(Cl)c2)cc1 [Compound 2034] | 178
O=C(O)Cc1ccc(-c2ccc(NC(=O)CSc3nnnn3-c3ccc4ncsc4c3Cl)c(Cl)c2)cc1 [Compound 2035] | 269
CC(C)(C)c1ccc(-n2nnnc2SCC(=O)Nc2ccc(-c3ccc(OCCn4ccnc4)cc3)cc2Cl)c(Cl)c1 [Compound 2036] | 67
CC(C)(C)c1ccc(-n2nnnc2SCC(=O)Nc2ccc(-c3ccc(OCCN4CCCCC4)cc3)cc2Cl)c(Cl)c1 [Compound 2039] | 28
CC(C)(C)c1ccc(-n2nnnc2SCC(=O)Nc2ccc(-c3ccc(OCCN4CCC(C(=O)O)CC4)cc3)cc2Cl)c(Cl)c1 [Compound 2040] | 36
CC(C)(C)c1ccc(-n2nnnc2SCC(=O)Nc2ccc(-c3ccc(OCCN4CC[C@@H](O)C4)cc3)cc2Cl)c(Cl)c1 [Compound 2041] | 28
CC(C)(C)c1ccc(-n2nnnc2SCC(=O)Nc2ccc(-c3ccc(OCCN4CC[C@H](O)C4)cc3)cc2Cl)c(Cl)c1 [Compound 2042] | 15
COC(=O)CN(C)CCOc1ccc(-c2ccc(NC(=O)CSc3nnnn3-c3ccc(C(C)(C)C)cc3Cl)c(Cl)c2)cc1 [Compound 2043] | 32
Cc1cc(C(F)(F)F)cc(-n2nnnc2SCC(=O)Nc2ccc(-c3ccc(CC(=O)O)cc3)cc2Cl)c1Cl [Compound 2044] | 29
O=C(CSc1nnnn1-c1ccc(C2CC2)cc1Cl)Nc1ccc(-c2ccc(OCCN3CCCC3)cc2)cc1Cl [Compound 2046] | 6.95
O=C(CSc1nnnn1-c1ccc(C2CC2)cc1Cl)Nc1ccc(-c2ccc(OCCN3CCCCC3)cc2)cc1Cl [Compound 2047] | 63.5
O=C(O)Cc1ccc(-c2ccc(NC(=O)CSc3nnnn3-c3ccc(C4CC4)cc3Cl)c(Br)c2)cc1 [Compound 2048] | 13
O=C(CSc1nnnn1-c1cc(C(F)(F)F)ccc1Cl)Nc1ccc(-c2ccc(OCCN3CCCCC3)cc2)cc1Cl [Compound 2049] | 54
